Non-standard residues stand in square brackets, D forms with d. Residues, ends and D or L forms follow the SMILES beside them. Dolaproine = CO[C@@H]([C@@H]1CCCN1)[C@@H](C)C(=O)O; Dil = CC[C@H](C)[C@H](NC)[C@@H](CC(=O)O)OC; NMeV = CN[C@H](C(=O)O)C(C)C
Columns and labels:
[1] = qualitative comparison; cited from earlier work
From the text: Auristatin is a microtubule-destroying drug. It was derived from marine shell-less mollusk Dolabella auricularia called dolastatins (Figure 1). After the dolastatin was found, it has been studied in the treatment of cancer, malaria, and fungus. After the successful total synthesis of dolastatin 10, various derivatives have been synthesized, such as monomethyl auristatin E (MMAE) and monomethyl auristatin F (MMAF). MMAE and MMAF were developed by Seattle Genetics and used as payloads for ADC. MMAF and MMAE have their advantages and disadvantages. MMAE is m ...

[2] = Preliminary stability tests of MMAF in rat plasma; format: in vitro ADME; conditions: for Short-term stability, mean concentration / Short-term stability, accuracy %: RT, 4 h; for Short-term stability, accuracy % / Long-term stability, accuracy % / Freeze-thaw stability, accuracy %: n = 3; for Freeze-thaw stability, accuracy %: three cycles
Protocol: Preliminary stability tests were performed in rat plasma under 4 different conditions, including short-term, freeze-thaw, long-term, and post-preparative stability. The short-term stability was assessed at room temperature (RT) for 4 hrs. The long-term stability was assessed by comparing the freshly prepared control samples to the samples kept frozen for 4 weeks at −80 °C. For the freeze-thaw stability, the stability-test samples were subjected to three freeze and thaw cycles at −80 °C. The post-preparative stability was assessed for the QC samples kept in an auto-sampler (10 °C) for 12 hrs.
The acceptance criteria for all of the qualification were within ±15% of the precision and accuracy.

[3] = Pharmacokinetic study of MMAF in rat (IV and PO), plasma by LC-TOF-MS/MS; format: in vivo; conditions: male SD rat
Protocol: Twenty microliters of rat plasma samples were placed in a cluster tube. Four microliters (make-up solution) of DMSO were added to the cluster tube, and 100 μL of ACN was also added. The mixture was capped and vortexed, and then centrifuged for 5 min at 12,000 rpm (4 °C). Following the centrifugation, 70 μL supernatant was transferred to an LC vial and diluted by adding 140 μL of DW.
(§1) LC-TOF-MS/MS was consisted of a Shimadzu CBM-20A/LC-20AD chromatographic system (Shimadzu Scientific Instruments, Columbia, MD, USA), with an eksigent CTC HTS PAL auto-sampler (Sciex, Redwood City, CA, USA) and a quadrupole time-of-flight TripleTOF 5600 mass spectrometer (Sciex, Redwood City, CA, USA). Kinetex XB-C18 column (2.1 × 50 mm, Phenomenex) for quantification and Kinetex XB-C18 column (2.1 × 100 mm, Phenomenex) for metabolite profiling studies were used as analytical columns. The LC mobile phase consisted of DW containing 0.1% formic acid (phase A) and ACN containing 0.1% formic acid (phase B). The flow rate was 0.4 mL/min for quantification and 0.3 mL/min for Met ID while maintaining the column temperature at 55 °C. Injection volume was 10 μL.
(1) Quantification: For TOF-MS/MS scan, the scan range was m/z 100~900. The protonated [M + H]^+ ion of MMAF (m/z 732.5) was used and its product ions at m/z 700.5 and m/z 520.3 were selected as the quantitative ion and the qualitative ion, respectively. The source temperature was set at 500 °C. The curtain gas flow was set at 30 L/min. The ion spray voltage (IVSF) was set at 5500 V. The declustering potential (DP) was 100 V, and the collision energy (CE) was 36 V.
Data acquisition and LC-MS/MS operation were conducted using Analyst® TF Version 1.6 (Sciex, Redwood City, CA, USA). MultiQuant® Version 2.1.1 (Sciex, Redwood City, CA, USA) was used for peak integration for MMAF quantification. The descriptive statistics for the qualification studies were calculated with Excel 2015 (Microsoft, Seoul, Korea). Pharmacokinetic parameters were calculated in a non-compartmental analysis using WinNonlin® version 8.0.0 (Certara, Princeton, NJ, USA). PeakView® Version 2.2 (Sciex, Redwood City, CA, USA) and MetabolitePilot^TM Version 2.0.2 (Sciex, Redwood City, CA, USA) were used for the structural elucidation of metabolites. MedChem Designer (Simulations Plus, Inc, Lancaster, CA, USA) was used for in silico metabolite prediction.
Male Sprague-Dawley (SD) rats were used for rat PK studies of MMAF. For rat PK studies of MMAF, rats were distributed into two different groups (5 mg/kg IV (intravenous) group and 10 mg/kg PO (oral) group). After IV or PO dose, blood samples were collected to heparinized tubes and centrifuged immediately at 10,000 rpm for 5 min. The sampling times were 0, 2, 5, 15, 30, 60, 90, 120, 240, 360, and 1440 min for IV PK and 0, 5, 15, 30, 60, 90, 120, 240, 360, and 1440 min for PO PK. The supernatant was transferred to a clean tube and stored at −80 °C until analysis.

[4] = In vitro metabolite profiling in human liver microsome; format: in vitro ADME; conditions: 90 min, 37 °C
From the text: as §1
(§2) (2) Metabolite profiling: The mass spectrometric conditions for the metabolite profiling of MMAF were as follows. The information-dependent analysis (IDA) with high-resolution TOF full scan was operated with electrospray ionization (ESI) in positive ion mode using real-time multiple mass defect filtering (MDF) and dynamic background subtraction. The IDA method consisted of TOF scan (m/z 50 to 1200) for the detection of MMAF and its metabolites. The method was followed by 6 TOF-MS/MS dependent scans (m/z 50 to 1200) for structural elucidation. […]

[5] = In vitro metabolite profiling in rat liver microsome; format: in vitro ADME; conditions: 90 min, 37 °C
From the text: as §1, §2

[6] = processed rat plasma QC in auto-sampler, 10 °C, high QC
[7] = processed rat plasma QC in auto-sampler, 10 °C, low QC

For `CC[C@H](C)[C@@H]([C@@H](CC(=O)N1CCC[C@H]1[C@H](OC)[C@@H](C)C(=O)N[C@@H](Cc1ccccc1)C(=O)O)OC)N(C)C(=O)[C@@H](NC(=O)[C@@H](NC)C(C)C)C(C)C` [MMAF, monomethyl auristatin F] (H-[NMeV]V[Dil][Dolaproine]F-OH), the “Aggregation tendency relative to MMAE” value [1] is listed as “lower aggregation tendency”, the “Hydrophilicity relative to MMAE” value [1] is listed as “more hydrophilic” and the “Systemic toxicity relative to MMAE” value [1] is listed as “lower systemic toxicity”. For the same molecule, the “Post-preparative stability, area ratio after 12 h as % of first injection” value [2, 6] was 99.98%, the “Post-preparative stability, area ratio of 10th injection (after 12hr)” value [2, 6] was 7.43 and the “Post-preparative stability, area ratio after 12 h as % of first injection” value [2, 7] was 97.93%. The “Post-preparative stability, area ratio of 10th injection (after 12hr)” value [2, 7] was 0.61, the “Post-preparative stability, area ratio of 1st injection” value [2, 6] was 7.43 and the “Short-term stability, mean concentration” value ([2]; rat plasma, high QC 1820 ng/mL, LC-TOF-MS/MS, mean of n = 3) was 1884.23 ng/mL. The “Short-term stability, accuracy %” value ([2]; rat plasma, high QC 1820 ng/mL) was 103.53%, the “Short-term stability, mean concentration” value ([2]; rat plasma, low QC 165.46 ng/mL, LC-TOF-MS/MS, mean of n = 3) was 149.90 ng/mL and the “Short-term stability, accuracy %” value ([2]; rat plasma, low QC 165.46 ng/mL) was 90.60%. The “Long-term stability, mean concentration” value ([2]; rat plasma, −80 °C, 4 weeks, high QC 1820 ng/mL, LC-TOF-MS/MS, mean of n = 3) was 1657.96 ng/mL, the “Long-term stability, accuracy %” value ([2]; rat plasma, −80 °C, 4 weeks, high QC 1820 ng/mL) was 91.10% and the “Long-term stability, accuracy %” value ([2]; rat plasma, −80 °C, 4 weeks, low QC 165.46 ng/mL) was 95.46%. For the same molecule, the “Freeze-thaw stability, accuracy %” value ([2]; rat plasma, −80 °C, high QC 1820 ng/mL) was 91.10%, the “Freeze-thaw stability, accuracy %” value ([2]; rat plasma, −80 °C, low QC 165.46 ng/mL) was 95.46% and the “Stability in rat plasma (in words)” value ([2]; short-term, long-term, freeze/thaw and post-preparative conditions, acceptance ±15%) was “stable”. The clearance ([3]; Sprague-Dawley, plasma, IV 5 mg/kg, non-compartmental analysis, read-out: Clearance (CL)) was 77.3 mL/min/kg, the Vd ([3]; Sprague-Dawley, plasma, IV 5 mg/kg, non-compartmental analysis, read-out: Vss) was 1.06 L/kg and the AUC(0-t) ([3]; Sprague-Dawley, IV 5 mg/kg, plasma, non-compartmental analysis) was 1090 ng·h/mL. The Cmax ([3]; Sprague-Dawley, IV 5 mg/kg, plasma, non-compartmental analysis, LC-TOF-MS/MS) was 8280 ng/mL, the Bioavailability ([3]; PO 10 mg/kg vs IV 5 mg/kg) was 0% and the “Systemic exposure after oral dosing” value ([3]; PO 10 mg/kg, plasma) was “no systemic exposure was observed”. The “Number of metabolites tentatively identified” value [4] was “seven” and the “Number of metabolites tentatively identified” value [5] was “four”.

For monomethyl auristatin E [MMAE], the “IC50 relative to MMAF” value [1] is listed as “lower IC50 than MMAF” and the “Membrane permeability relative to MMAF” value [1] is listed as “more membrane-permeable”.
